system: MCF7; assay: GRmax, 72 h; higher = less effect;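 also: breast cell lines in 384-well plates, nine doses across a 10^4 range, Dye Drop imaging of viable cells vs DMSO and time-zero plates, GR 0 means no net growth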

First: COc1ccc2c(c1)[C@]1(C[C@H]1c1ccc3c(/C=C/c4ccc(CN5C[C@@H](C)O[C@@H](C)C5)cc4)n[nH]c3c1)C(=O)N2
Second: CN(C)C/C=C/C(=O)Nc1ccc(O[C@@H]2CCC[C@@H](Nc3ncc(Cl)c(-c4c[nH]c5ccccc45)n3)C2)cc1 [BSJ-01-175] (max 10 µM)
The “GRmax, 72 h” value of the first is higher: -0.0551 GR for the first, -0.627 GR for the second.

Going from `COc1cccc(OCCCN)c1-c1cc(Nc2cnc(C#N)cn2)n[nH]1` to `CCCCOc1c(C(=O)c2c(F)cc(C)cc2F)c[nH]c2nncc1-2` (max 10 µM), the “GRmax, 72 h” value falls from 0.211 GR to 0.072 GR.

First: CNc1nc(-c2ccc3c(N)n[nH]c3c2)cc(N2C[C@@H](C(=O)NC3CCCCC3)CC[C@H]2C)n1 (max 10 µM)
Second: CN(C)C(=O)c1cc2cnc(Nc3ccc(N4CCNCC4)cn3)nc2n1C1CCCC1 [LEE011/Ribociclib] (max 10 µM)
The “GRmax, 72 h” value of the first is lower: 0.295 GR for the first, 0.31 GR for the second.

Compared with `CO[C@@H](C)Cn1c(=O)n(C)c2cnc3ccc(-c4cncc(C(C)(C)O)c4)cc3c21` (max 10 µM), `Nc1ccc(-c2ccc3ncc4ccc(=O)n(-c5cccc(C(F)(F)F)c5)c4c3c2)cn1` [Torin2] (max 1 µM) is higher in “GRmax, 72 h” value: -0.248 GR for the first, -0.133 GR for the second.

First: C=CCn1c(=O)c2cnc(Nc3ccc(N4CCN(C)CC4)cc3)nc2n1-c1cccc(C(C)(C)O)n1 [AZD1775] (max 10 µM)
Second: COc1cc(N2CCN(C)CC2)ccc1Nc1ncc2c(n1)N(C)c1ccccc1C(=O)N2CC(F)(F)F [FMF-03-146-1]
The “GRmax, 72 h” value of the first is lower: -0.0913 GR for the first, 0.78 GR for the second.

Going from `CNC(=O)c1cccc(-c2ccc3c(N4CCOC[C@@H]4C)nc(N4CCOC[C@@H]4C)nc3n2)c1` [AZD2014] (max 10 µM) to `C[C@@H]1COCCN1c1cc(C2([S@](C)(=N)=O)CC2)nc(-c2cc[nH]c3nccc2-3)n1` [AZD6738] (max 10 µM), the “GRmax, 72 h” value rises from -0.0281 GR to 0.0472 GR.

First: NC1(C(=O)N[C@@H](CCO)c2ccc(Cl)cc2)CCN(c2nc[nH]c3nccc2-3)CC1 [AZD5363] (max 10 µM)
Second: CC1(N)CCN(c2cnc(-c3cccc(Cl)c3Cl)c(N)n2)CC1 [SHP099] (max 10 µM)
The “GRmax, 72 h” value of the first is lower: 0.476 GR for the first, 0.847 GR for the second.

Going from `CC(=O)c1c(C)c2cnc(Nc3ccc(N4CCN(CCOCCOCCOCCNC(=O)COc5cccc6c5C(=O)N(C5CCC(=O)NC5=O)C6=O)CC4)cn3)nc2n(C2CCCC2)c1=O` (stereo not drawn) [BSJ-03-123] (max 10 µM) to `CC[C@@H]1C(=O)N(C)c2cnc(Nc3ccc(C(=O)N[C@H]4CC[C@H](N5CCN(CC6CC6)CC5)CC4)cc3OC)nc2N1C(C)C` [Volasertib/BI6727] (max 1 µM), the “GRmax, 72 h” value rises from -0.323 GR to -0.0338 GR.

Compared with `CC(C)Nc1cc(-c2c[nH]c(C(=O)N[C@H](CO)c3cccc(Cl)c3)c2)c(Cl)cn1` [BVD523] (max 10 µM), `CN(C)C/C=C/C(=O)Nc1ccc(C(=O)Nc2cccc(Nc3ncc(Cl)c(-c4c[nH]c5ccccc45)n3)c2)cc1` [THZ1] (max 1 µM) is lower in “GRmax, 72 h” value: 0.334 GR for the first, -0.469 GR for the second.

First: CCC(=O)Nc1ccc(C(=O)Nc2ccc(Nc3ncc4c(n3)N(C)c3ccc(C)cc3C(=O)N4C)cc2)cc1 [FMF-03-145-1]
Second: CN(C)C/C=C/C(=O)Nc1ccc(C(=O)Nc2cccc(Nc3cc(-c4c[nH]c5ccccc45)ncn3)c2)cc1 [THZ-P1-2] (max 10 µM)
The “GRmax, 72 h” value of the first is higher: 0.0265 GR for the first, -0.708 GR for the second.

First: CN1CC[C@H](c2c(O)cc(O)c3c(=O)cc(-c4ccccc4Cl)oc23)[C@H](O)C1 [Flavopiridol] (max 1 µM)
Second: O=C1NC(=O)[C@@H](c2cn3c4c(cccc24)CCC3)[C@@H]1c1c[nH]c2ccccc12 [Tivantinib/ARQ197] (max 10 µM)
The “GRmax, 72 h” value of the first is lower: -0.291 GR for the first, -0.0512 GR for the second.

First: O=C1NC(=NCc2cccs2)SC1=Cc1ccc2ncccc2c1 [R0-3306] (max 10 µM)
Second: CN1CCN(C(=O)c2ccc3cc(CCNc4ncnc5ccc(C#N)cc45)ccc3c2)CC1 [senexin b] (max 10 µM)
The “GRmax, 72 h” value of the first is lower: 0.067 GR for the first, 0.474 GR for the second.

First: CNCc1ccc(-c2[nH]c3cc(F)cc4c3c2CCNC4=O)cc1 [Rucaparib] (max 10 µM)
Second: CN(C)C/C=C/C(=O)Nc1ccc(C(=O)N2CCC[C@@H](Nc3ncc(Cl)c(-c4c[nH]c5ccccc45)n3)C2)cc1 [THZ531] (max 1 µM)
The “GRmax, 72 h” value of the first is higher: 0.635 GR for the first, -0.367 GR for the second.

Going from `CN1CCN(CCOc2cc(OC3CCOCC3)c3c(Nc4c(Cl)ccc5c4OCO5)ncnc3c2)CC1` [Saracatinib/AZD0530] (max 10 µM) to `Cc1cc(C(C)Nc2ccccc2)c2nc(N3CCOCC3)cc(=O)n2c1` (stereo not drawn) [TGX221] (max 10 µM), the “GRmax, 72 h” value rises from 0.274 GR to 0.789 GR.

First: Cc1nc(-c2cn3c(n2)-c2ccc(-c4cnn(C(C)(C)C(N)=O)c4)cc2OCC3)n(C(C)C)n1 [Taselisib/GDC0032] (max 10 µM)
Second: C=CC(=O)Nc1ccc(C(=O)Nc2[nH]nc3c2CN(C(=O)N[C@H](CN(C)C)c2ccccc2)C3(C)C)cc1 [YKL-5-124] (max 10 µM)
The “GRmax, 72 h” value of the first is higher: -0.255 GR for the first, -0.268 GR for the second.

`O=C(CCCCCCC(=O)Nc1ccccc1)NO` [Vorinostat] (max 10 µM) was tested, and the “GRmax, 72 h” value was -0.175 GR.

system: MDAMB231; assay: GRmax, 72 h; higher = less effect;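 also: breast cell lines in 384-well plates, nine doses across a 10^4 range, Dye Drop imaging of viable cells vs DMSO and time-zero plates, GR 0 means no net growth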

First: COc1ccc2c(c1)[C@]1(C[C@H]1c1ccc3c(/C=C/c4ccc(CN5C[C@@H](C)O[C@@H](C)C5)cc4)n[nH]c3c1)C(=O)N2
Second: CN(C)C/C=C/C(=O)Nc1ccc(O[C@@H]2CCC[C@@H](Nc3ncc(Cl)c(-c4c[nH]c5ccccc45)n3)C2)cc1 [BSJ-01-175] (max 10 µM)
The “GRmax, 72 h” value of the first is higher: 0.0653 GR for the first, -0.562 GR for the second.

Going from `COc1cccc(OCCCN)c1-c1cc(Nc2cnc(C#N)cn2)n[nH]1` to `CCCCOc1c(C(=O)c2c(F)cc(C)cc2F)c[nH]c2nncc1-2` (max 10 µM), the “GRmax, 72 h” value rises from -0.172 GR to 0.227 GR.

First: CNc1nc(-c2ccc3c(N)n[nH]c3c2)cc(N2C[C@@H](C(=O)NC3CCCCC3)CC[C@H]2C)n1 (max 10 µM)
Second: CN(C)C(=O)c1cc2cnc(Nc3ccc(N4CCNCC4)cn3)nc2n1C1CCCC1 [LEE011/Ribociclib] (max 10 µM)
The “GRmax, 72 h” value of the first is higher: 0.662 GR for the first, 0.204 GR for the second.

First: CO[C@@H](C)Cn1c(=O)n(C)c2cnc3ccc(-c4cncc(C(C)(C)O)c4)cc3c21 (max 10 µM)
Second: Nc1ccc(-c2ccc3ncc4ccc(=O)n(-c5cccc(C(F)(F)F)c5)c4c3c2)cn1 [Torin2] (max 1 µM)
The “GRmax, 72 h” value of the first is lower: -0.136 GR for the first, -0.0262 GR for the second.

Compared with `C=CCn1c(=O)c2cnc(Nc3ccc(N4CCN(C)CC4)cc3)nc2n1-c1cccc(C(C)(C)O)n1` [AZD1775] (max 10 µM), `COc1cc(N2CCN(C)CC2)ccc1Nc1ncc2c(n1)N(C)c1ccccc1C(=O)N2CC(F)(F)F` [FMF-03-146-1] is higher in “GRmax, 72 h” value: -0.282 GR for the first, 0.874 GR for the second.

First: CNC(=O)c1cccc(-c2ccc3c(N4CCOC[C@@H]4C)nc(N4CCOC[C@@H]4C)nc3n2)c1 [AZD2014] (max 10 µM)
Second: C[C@@H]1COCCN1c1cc(C2([S@](C)(=N)=O)CC2)nc(-c2cc[nH]c3nccc2-3)n1 [AZD6738] (max 10 µM)
The “GRmax, 72 h” value of the first is lower: 0.241 GR for the first, 0.354 GR for the second.

Compared with `NC1(C(=O)N[C@@H](CCO)c2ccc(Cl)cc2)CCN(c2nc[nH]c3nccc2-3)CC1` [AZD5363] (max 10 µM), `CC1(N)CCN(c2cnc(-c3cccc(Cl)c3Cl)c(N)n2)CC1` [SHP099] (max 10 µM) is lower in “GRmax, 72 h” value: 1.05 GR for the first, 0.943 GR for the second.

Compared with `CC(=O)c1c(C)c2cnc(Nc3ccc(N4CCN(CCOCCOCCOCCNC(=O)COc5cccc6c5C(=O)N(C5CCC(=O)NC5=O)C6=O)CC4)cn3)nc2n(C2CCCC2)c1=O` (stereo not drawn) [BSJ-03-123] (max 10 µM), `CC[C@@H]1C(=O)N(C)c2cnc(Nc3ccc(C(=O)N[C@H]4CC[C@H](N5CCN(CC6CC6)CC5)CC4)cc3OC)nc2N1C(C)C` [Volasertib/BI6727] (max 1 µM) is higher in “GRmax, 72 h” value: -0.181 GR for the first, -0.0186 GR for the second.

Going from `CC(C)Nc1cc(-c2c[nH]c(C(=O)N[C@H](CO)c3cccc(Cl)c3)c2)c(Cl)cn1` [BVD523] (max 10 µM) to `CN(C)C/C=C/C(=O)Nc1ccc(C(=O)Nc2cccc(Nc3ncc(Cl)c(-c4c[nH]c5ccccc45)n3)c2)cc1` [THZ1] (max 1 µM), the “GRmax, 72 h” value falls from 0.213 GR to -0.505 GR.

Compared with `CCC(=O)Nc1ccc(C(=O)Nc2ccc(Nc3ncc4c(n3)N(C)c3ccc(C)cc3C(=O)N4C)cc2)cc1` [FMF-03-145-1], `CN(C)C/C=C/C(=O)Nc1ccc(C(=O)Nc2cccc(Nc3cc(-c4c[nH]c5ccccc45)ncn3)c2)cc1` [THZ-P1-2] (max 10 µM) is lower in “GRmax, 72 h” value: -0.0038 GR for the first, -0.691 GR for the second.

Compared with `CN1CC[C@H](c2c(O)cc(O)c3c(=O)cc(-c4ccccc4Cl)oc23)[C@H](O)C1` [Flavopiridol] (max 1 µM), `O=C1NC(=O)[C@@H](c2cn3c4c(cccc24)CCC3)[C@@H]1c1c[nH]c2ccccc12` [Tivantinib/ARQ197] (max 10 µM) is higher in “GRmax, 72 h” value: -0.441 GR for the first, -0.0845 GR for the second.

Compared with `O=C1NC(=NCc2cccs2)SC1=Cc1ccc2ncccc2c1` [R0-3306] (max 10 µM), `CN1CCN(C(=O)c2ccc3cc(CCNc4ncnc5ccc(C#N)cc45)ccc3c2)CC1` [senexin b] (max 10 µM) is higher in “GRmax, 72 h” value: 0.206 GR for the first, 0.892 GR for the second.

Compared with `CNCc1ccc(-c2[nH]c3cc(F)cc4c3c2CCNC4=O)cc1` [Rucaparib] (max 10 µM), `CN(C)C/C=C/C(=O)Nc1ccc(C(=O)N2CCC[C@@H](Nc3ncc(Cl)c(-c4c[nH]c5ccccc45)n3)C2)cc1` [THZ531] (max 1 µM) is lower in “GRmax, 72 h” value: 0.634 GR for the first, -0.276 GR for the second.

First: CN1CCN(CCOc2cc(OC3CCOCC3)c3c(Nc4c(Cl)ccc5c4OCO5)ncnc3c2)CC1 [Saracatinib/AZD0530] (max 10 µM)
Second: Cc1cc(C(C)Nc2ccccc2)c2nc(N3CCOCC3)cc(=O)n2c1 (stereo not drawn) [TGX221] (max 10 µM)
The “GRmax, 72 h” value of the first is lower: 0.28 GR for the first, 0.851 GR for the second.

First: Cc1nc(-c2cn3c(n2)-c2ccc(-c4cnn(C(C)(C)C(N)=O)c4)cc2OCC3)n(C(C)C)n1 [Taselisib/GDC0032] (max 10 µM)
Second: C=CC(=O)Nc1ccc(C(=O)Nc2[nH]nc3c2CN(C(=O)N[C@H](CN(C)C)c2ccccc2)C3(C)C)cc1 [YKL-5-124] (max 10 µM)
The “GRmax, 72 h” value of the first is higher: 0.0709 GR for the first, -0.19 GR for the second.

With `O=C(CCCCCCC(=O)Nc1ccccc1)NO` [Vorinostat] (max 10 µM) the “GRmax, 72 h” value was -0.385 GR.

system: MDAMB415; assay: GRmax, 72 h; higher = less effect;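 also: breast cell lines in 384-well plates, nine doses across a 10^4 range, Dye Drop imaging of viable cells vs DMSO and time-zero plates, GR 0 means no net growth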

For `COc1ccc2c(c1)[C@]1(C[C@H]1c1ccc3c(/C=C/c4ccc(CN5C[C@@H](C)O[C@@H](C)C5)cc4)n[nH]c3c1)C(=O)N2`, the “GRmax, 72 h” value was 0.157 GR.

Source: the supplement of paper PMC9663587
